Where “and” joins values, the source holds several entries; their conditions need not be identical. Identical values can stand only once. Entries after “also recorded” stand apart in the source; their conditions may differ.
What was measured:
E. coli 434 = experiment: Recovery of E. coli in tissue: ex vivo adhesion of E. coli to human colon mucosal samples (organ culture); type: cell-based; details: for E coli × 10 6 Recovery on tissue: 4 h culture with E. coli, individual samples 1 and 2; for E coli × 10 6 Standarized 30 mg, Average: mean of 2 samples; for E coli × 10 6 Standarized 30 mg: normalized to 30 mg tissue, individual samples; for E. coli recovery in tissue, Average % over control: control Ec = 100.0%
Method: (§1) The aim of this investigation was to determine the effects “ex vivo” of D-fagomine on the adhesion of E. coli to human colon mucosal samples and their possible influence on the release of inflammatory mediators on a range of doses as an indication of the activation of the innate immune response.
(§2) The approach, included the incubation of an E. coli strain with mucosal colonic samples obtained by surgery. The intention was to preserve the whole structure of mucosal samples including multiple cell populations such as epithelial cells and immunocompetent cells (macrophages, dendritic cells, plasma cells and lymphocytes), all of them keeping their original structure and disposition for cell to cell interaction. In other words, the approach was intended for mimicking the “in vivo” conditions of the colon mucosa.
In the design of the study doses of 0, 50, 500 and 5000 μg/ml of D-fagomine were tested.
Pathogenic strains of E coli were used. The main differences of pathogenic strains of E coli vs. other non pathogenic are related to their capacity to avoid the immune system.
(§3) Samples of macroscopically normal colonic mucosa were obtained at surgery from patients undergoing colectomy for colonic cancer. Areas free of disease were collected in ice-cold saline and transferred immediately to the Laboratory of the Digestive Research Unit of Hospital's Vail d'Hebron (Barcelona). After washing with saline, the mucosa was dissected from the muscularis layer and pieces between 25 and 30 mg were placed surface up in culture wells (15 mm diameter wells with 500 μm bottom mesh, Netwell culture systems, Costar, Cambridge, Mass.), and orientated so that the epithelial surface was upper-most. Filters were suspended over wells containing 1.5 ml of RPMI edium (CanSera, Rexdale, Ontario, Canada) supplemented with 10% foetal calf serum (FCS; Gibco-BRL, Eggenstein, Germany), glutamine 2 mM and antibiotics: 100 U/ml penicillin, 100 microg/ml streptomycin and 50 microg/ml gentamycin, (all from Normon, Madrid, Spain). This volume is just for maintaining the humidity of the surface but not for sinking beneath the surface.
(§4) Biopsies were incubated at 37° C. in a 95% O2+5% CO2 atmosphere and stimulated during 1 h with PMA (phorbol-12-myristate-13-acetate) and lonomycin (100/1000 ng/mL), both available from Sigma.
(§5) Thereafter, medium was replaced by fresh RPMI 1640 medium (without glucose) supplemented with 10% FCS and sodium bicarbonate at 24 mmol/L.
(§6) Bacteria strain E. coli ([…]) and fagomine (50, 500 and 5000 μg/mL) were added carefully to the explants. After 4 h of culture of tissues with E. coli, supernatants were collected for measurement of E. coli recovery, release of TNF-α, LDH (viability) and pH. Moreover, the tissues were rinsed, homogenized and assayed for E. coli recovery and LDH (to study tissue viability).
The pathogenic E. coli reference strain (CECT 434, (Migula 1895) Castellani and Chalmers 1919) was provided by Dr. Maria Angeles Calvo (Microbiology Laboratory, Faculty of Veterinary, Autonomous University of Barcelona, Spain)
The day before of the experiment with tissue, the E. coli strain was inoculated in Luria Bertani broth (Pharmacy, Hospital Vail d'Hebron, Autonomous University of Barcelona, Spain) at 37° C. under aerobic conditions for 24 h. The day of the experiment bacteria were harvested in the stationary phase, cell counts in the bacterial suspension were estimated by optical density at 600 nm absorbance, and bacteria were added to the tissue-culture wells at the appropriate dilution.
In order to quantify only the adherent E. coli bacteria, at the end of the culture, tissues were recovered and rinsed with 2 ml of saline in an orbital mixer at low speed during 2 minutes. After rinsing, each tissue was homogenized in 1 ml of saline and dilutions were prepared to quantify the recovery of E. coli in solid agar selective media. […]

TNF-α = TNF-α release into the supernatant of human colon mucosa organ culture with E. coli (ELISA); type: cell-based; details: for TNF-alfa (1.5 ml standarized 30 mg) / TNF-alfa/ml: individual samples, listed as Fag; for TNF-alfa (1.5 ml standarized 30 mg, Average): mean of 2 samples; for TNF-alfa/ml: supernatant after 4 h
Method: as §1, §2, §3, §4, §5, §6
Concentration of TNF-α in the supernatants was measured using a commercially available ELISA assay system for human citoquine TNF-α (Ready to Set, e-Bioscience). Cytokine concentration is expressed as pg (TNF-α) per 30 mg of tissue.

colon tissue = experiment: Colon viability (LDH release); type: cell-based, human
Method: as §3, §6
To estimate tissue viability, we calculated LDH (lactate-dehydrogenase) activity release in the supernatant. This method was validated by Finnie (Gut 1995). The ratio of LDH activity in the supernatant over total LDH activity in tissue homogenates was calculated and used to estimate the percentage of viable tissue. Tissue samples were homogenized in Tris/HCl (100 mmol/L, pH 7.4) and supernatants were analysed for LDH using the spectrophotometric method. Tissue viability was assessed as the release of LDH per mg of tissue.

bacteria [1] = details: Gomez L. et al.; Castillo J. A. et al.; cited from earlier work
[2] = Gomez L. et al. Br. J. Nutr. 2012; cited from earlier work
bacteria [3] = details: WO2011117362; cited from earlier work
[4] = Kim H. et al. 2005; cited from earlier work
[5] = D-fagomine 50 μg/ml, listed as Fag
[6] = D-fagomine 500 μg/ml, listed as Fag
[7] = D-fagomine 50 μg/ml with E. coli
[8] = D-fagomine 500 μg/ml with E. coli
[9] = D-fagomine 5000 μg/ml with E. coli

## OC[C@H]1NCC[C@@H](O)[C@@H]1O (stereo in doubt) [D-fagomine, (2R, 3R, 4R)-2-hydroxymethylpiperidine-3,4-diol]
E. coli 434; 50, 500 and 5000 μg/ml
  Antiadherent effect against E. coli on colon mucosa (in words): antiadherent properties against E. coli in a dose dependent manner; also recorded: antiadherent effect against E. coli on the colon epithelium
E. coli 434; [5]
  E coli × 10 6 Recovery on tissue: 4 × 10 6 and 4.4 × 10 6
  E coli × 10 6 Standarized 30 mg: 4.12 × 10 6 and 4.31 × 10 6
E. coli 434; D-fagomine 50 μg/ml
  E coli × 10 6 Standarized 30 mg, Average: 4.22 × 10 6
  E. coli recovery in tissue, Average % over control: 56.6%
E. coli 434; [6]
  E coli × 10 6 Recovery on tissue: 2.4 × 10 6 and 0.8 × 10 6
  E coli × 10 6 Standarized 30 mg: 2.21 × 10 6 and 0.9 × 10 6
E. coli 434; D-fagomine 500 μg/ml
  E coli × 10 6 Standarized 30 mg, Average: 1.56 × 10 6
  E. coli recovery in tissue, Average % over control: 21.0%
E. coli 434; D-fagomine 5000 μg/ml
  E coli × 10 6 Recovery on tissue: 1.6 × 10 6
  E coli × 10 6 Standarized 30 mg, Average: 1.47 × 10 6
E. coli 434; D-fagomine 5000 μg/ml, listed as Fag
  E coli × 10 6 Standarized 30 mg: 1.4 × 10 6 and 1.55 × 10 6
E. coli 434; D-fagomine 50 or 5000 μg/ml
  E. coli recovery in tissue, Average % over control: 19.8%
TNF-α; 50 μg/mL versus 500 μg/mL
  TNF-alfa release at 50 μg/mL, times higher than at 500 μg/mL: 5 times
TNF-α; 50 μg/mL versus 5000 μg/mL
  TNF-alfa release at 50 μg/mL, times higher than at 5000 μg/mL: ~8 times
TNF-α; 50, 500 and 5000 μg/ml with E. coli
  Stimulation of TNF-alfa release (in words): capacity to stimulate the release of TNF-alfa and that the lower is the dose the more potent is such release; also recorded: stimulating the release of TNF-alfa either with respect to the control with E. coli or with respect to the control without E. coli
TNF-α; [7]
  TNF-alfa (1.5 ml standarized 30 mg): 145.4 pg (TNF-α) per 30 mg of tissue and 164.2 pg (TNF-α) per 30 mg of tissue
  TNF-alfa (1.5 ml standarized 30 mg, Average): 154.8 pg (TNF-α) per 30 mg of tissue
  TNF-alfa/ml: 106.2 mL⁻¹ and 98.8 mL⁻¹
TNF-α; [8]
  TNF-alfa (1.5 ml standarized 30 mg): 31.9 pg (TNF-α) per 30 mg of tissue and 28.6 pg (TNF-α) per 30 mg of tissue
  TNF-alfa (1.5 ml standarized 30 mg, Average): 30.3 pg (TNF-α) per 30 mg of tissue
  TNF-alfa/ml: 20.7 mL⁻¹ and 18.6 mL⁻¹
TNF-α; [9]
  TNF-alfa (1.5 ml standarized 30 mg): 8.2 pg (TNF-α) per 30 mg of tissue and 18.1 pg (TNF-α) per 30 mg of tissue
  TNF-alfa (1.5 ml standarized 30 mg, Average): 13.2 pg (TNF-α) per 30 mg of tissue
  TNF-alfa/ml: 13.8 mL⁻¹ and 5.7 mL⁻¹
Colon tissue; E. coli + D-fagomine 50 μg/ml
  Viability LDH: 88.20%
Colon tissue; E. coli + D-fagomine 500 μg/ml
  Viability LDH: 91.47%
Colon tissue; E. coli + D-fagomine 5000 μg/ml
  Viability LDH: 83.88%
Colon tissue; coculture with E. coli or fagomine
  Effect on viability of the tissue (in words): does not affect the viability of the tissue
Bacteria [1]
  Antimicrobial activity (in words): do not show antimicrobial activity
[2]
  Postprandial blood glucose level and insulin secretion (in words): decrease postprandrial blood glucose level without stimulating insulin secretion
Bacteria [3]
  Bacterial adherence to mucosal surface (in words): inhibiting bacterial adherence to mucosal surface

## C[C@@H]1O[C@@H](OC[C@H]2O[C@@H](Oc3c(-c4ccc(O)c(O)c4)oc4cc(O)cc(O)c4c3=O)[C@H](O)[C@@H](O)[C@@H]2O)[C@H](O)[C@H](O)[C@H]1O [rutin]
[4]
  Stability and deglycosylation in the intestine after oral administration (in words): stable in the upper intestine, but rapidly deglycosylated to liberate the quercetin at the level of the colon

Source: patent publication US10233206B2, “D-fagomine for the control of inflammatory processes related to an overactivation of the humoral immune response” (priority 2013, dated 2019)
